{"source": "patent US20210139610A1", "about": "“COMPOSITIONS AND METHODS FOR MEDIATING EPS” (priority 2018, published 2021)", "molecules": {"B1": {"name": "non-inflammatory HMGB1 variant: mHMGB1, a C45 S non-inflammatory variant (protein, UniProt P09429 1-215, looked up, variant C45S)", "High mobility group protein B1": "MGKGDPKKPRGKMSSYAFFVQTCREEHKKKHPDASVNFSEFSKKSSERWKTMSAKEKGKFEDMAKADKARYEREMKTYIPPKGETKKKFKDPNAPKRPPSAFFLFCSEYRPKIKGEHPGLSIGDVAKKLGEMWNNTAADDKQPYEKKAAKLKEKYEKDIAAYRAKGKPDAAKKGVVKAEKSKKKKEEEEDEEDEEDEEEEEDEEDEDEEEDDDDE"}, "B2": {"name": "NucB: nuclease that prevents biofilm formation (Table 1) (protein, UniProt P42983 29-136, looked up)", "Sporulation-specific …": "SYDKVLYFPLSRYPETGSHIRDAIAEGHPDICTIDRDGADKRREESLKGIPTKPGYDRDEWPMAVCEEGGAGADVRYVTPSDNRGAGSWVGNQMSSYPDGTRVLFIVQ"}}, "key": {"[1]": {"tested_on": "Z-DNA and B-DNA in the NTHI biofilm extracellular matrix", "experiment": "Immunofluorescence CLSM for Z-DNA / B-DNA in NTHI biofilms", "format": "cell-based, Non-typeable Haemophilus influenzae", "conditions": "24 h biofilm + 16 h with agent (1 mM CeCl3; 1 μM chloroquine)", "protocol": "FIG. 31: DNase degrades B-DNA, but not Z-DNA, within the biofilm extracellular matrix. DNase (Pulmozyme; 5 units) was added at 24 h after biofilm seeding to in vitro pre-formed NTHI biofilms.\nFIG. 37: HMGB1 destabilizes Z-DNA structures in the biofilm extracellular matrix. Non-typeable Haemophilus influenzae biofilms were grown in supplemented BHI media in 8 well chambered coverglass slides at 37° C. and 5% CO2. After 24 h, biofilms were treated as indicated above. After 40 h, biofilms were washed, probed with primary antibodies directed against Z-DNA (light gray dots), a fluorescent secondary antibody, stained with DAPI (gray regions), and visualized via fluorescence microscopy.\nFIGS. 50A-50B: Equilibrium shift of B-DNA to Z-DNA conversion alters biofilm formation. NTHI biofilms formed for 24 h were incubated with cerium chloride (CeCl3) or chloroquine for an additional 16 h and were probed with naive or anti-Z-DNA (white) by immunofluorescence CLSM.\nFIGS. 51A-51B: Equilibrium shift of B-DNA to Z-DNA conversion alters biofilm formation. NTHI biofilms formed for 24 h were incubated with cerium chloride (CeCl3) (FIG. 51A) or chloroquine (FIG. 51B) for an additional 16 h. Z-DNA was measured by IF and CLSM using anti-Z-DNA and cells were stained with the membrane stain FM4-64. Bars represent the SEM. Statistical significance compared to control was assessed by paired t-tests, *P<0.05, **P<0.01."}, "genomic DNA / poly(dGdC)": {"tested_on": "genomic DNA / poly(dGdC)", "experiment": "A260/295 absorbance ratio assay of B-DNA to Z-DNA conversion", "format": "biochemical", "protocol": "In one aspect, the agents are administered in the absence of a DNAse. Left: Genomic DNA (2 μg/mL) was incubated with spermidine (spd:300 μM), HU (500 nM), a combination of both spd and HU for 2 h at 37° C. Incubation of gDNA with 3.6M NaCl was used as a positive Z-DNA control. Middle: gDNA (2 μg/mL) was incubated with increased concentrations of Cerium chloride (CeCl3) which is known to induce Z-DNA. Right: poly(dGdC) (1 μg) was incubated with either NaCl (3.6 M), chloroquine (100 μM), or a combination of both NaCl and chloroquine. […] The absorbance values at 260 nm and 295 nm were measured and the A260/295 ratio was calculated. A ratio >8.6 is indicative of B-DNA, while a value near 3.2 is indicative of Z-DNA."}, "preformed NTHI biofilms [2]": {"tested_on": "preformed NTHI biofilms", "experiment": "Disruption of pre-formed NTHI biofilms (treatment after initial growth; LIVE/DEAD, CLSM, COMSTAT)", "format": "cell-based, Non-typeable Haemophilus influenzae", "conditions": "24 h biofilm + 16 h with CeCl3 or chloroquine"}, "[3]": {"tested_on": "Non-typeable Haemophilus influenzae biofilms", "experiment": "NTHI in vitro biofilm formation, additive present from seeding (LIVE/DEAD, CLSM, COMSTAT)", "format": "cell-based", "conditions": "1 mM exogenous spermidine plus DCHA 50 μM", "protocol": "FIG. 14: Non-typeable Haemophilus influenzae biofilms were grown for 40 h in supplemented BHI medium containing additives as indicated below each bar in 8 well chambered coverglass slides at 37° C. and 5% CO2. Biofilms were washed, stained with LIVE/DEAD®, fixed, and imaged by CLSM. Biofilm parameters were quantified using COMSTAT software.\nDicyclohexylamine inhibits spermidine synthase via a competitive inhibition mechanism, i.e. through binding to the same site on the protein as the putrescine substrate. Applicants therefore hypothesized that dicyclohexylamine would inhibit NTHi biofilm development. […]"}, "preformed NTHI biofilms [4]": {"tested_on": "preformed NTHI biofilms", "experiment": "Disruption of pre-formed NTHI biofilms (treatment after initial growth; LIVE/DEAD, CLSM, COMSTAT)", "format": "cell-based, Non-typeable Haemophilus influenzae", "conditions": "1% P11", "protocol": "(FIG. 18A) Biofilm growth was initiated then maintained for 24 hrs then treated for 16 hrs with 0 (SBHI Control), 0.1%, 1%, and 5% (w/v) of Phoshocellulose (P11). (FIG. 18B) Biofilm growth was initiated then maintained for 40 hrs in the presence of 0 (sBHI Control), 0.1%, 1%, and 5% (w/v) of (P11). Biofilms were washed with saline and stained with LIVE/DEAD® stain. Images were analyzed by COMSTAT to calculate average thickness and biomass. All images were captured with a 63× objective.\n21:65-7. Pulmozyme® was added either at seeding (biofilm prevention) or to pre-formed biofilms (biofilm disruption) (FIG. 6). The resultant biofilms were stained with LIVE/DEAD® and evaluated using CLSM and COMSTAT analysis.\nTo determine anti-biofilm activity of cation exchange resins on preformed biofilms (i.e. ability to disrupt an extant biofilm), NTHI growth was initiated and maintained for 24 hrs, then treated for 16 hrs with 0 (sBHI Control), 0.1, 1, or 5% (w/v) of P11 phosphocellulose (FIG. 18A). To determine the anti-biofilm activity of cation exchange resins to prevent biofilm formation, NTHI growth was initiated and maintained in the presence of 0 (sBHI Control), 0.1, 1, and 5% w/v of P11 phosphocellulose (FIG. 18B) or 5% (w/v) heparin sepharose (FIG. 19). Biofilms were washed with saline and stained with LIVE/DEAD®, visualized with confocal scanning microscopy (CSLM) and analyzed by COMSTAT to determine average thickness and biomass."}, "NTHI biofilms": {"tested_on": "NTHI biofilms", "experiment": "Transwell assay: NTHI biofilm in basolateral chamber, P11 resin in apical chamber", "format": "cell-based, Non-typeable Haemophilus influenzae", "experimental": "(FIG. 42A) NTHI biofilm growth was initiated at 37° C., 5% CO2 in the basolateral chamber of a transwell plate system whereas P11 resin was added to the apical chamber, and incubated for 16 h. (FIG. 42B) Biofilms were stained, fixed, visualized via CLSM, and analyzed by COMSTAT. […] (FIG. 42C) Spermidine (Spd, 300 μM) and HU (500 nM) were added at seeding.\nTo determine the effect of P11 sequestration of these molecules on bacterial biofilm formation, Applicants utilized a transwell system. NTHI growth was initiated in the basolateral chamber while P11 (1% w/v) was added to the apical chamber at seeding. At 16 h, the biofilms were washed and stained with LIVE/DEAD®, imaged using CLSM, and analyzed with COMSTAT. […] To determine whether P11 cation depletion included polyamines and/or DNABII proteins, NTHI growth was initiated in the basolateral chamber with the exogenous addition of 1 mM spermidine and 1 μM HU, while P11 was added at 1% w/v to the apical chamber.\nTo determine whether the decrease in biofilm formation was dependent on direct cellular contact, NTHI growth was initiated in the basal chamber of a transwell plate system that contained a 0.4 μm pore size within the membrane that separates the apical and basolateral chambers. This allows for the diffusion of small molecules e.g. proteins (DNABII), polyamines and divalent metal cations between the two chambers, but not bacterial cells. […] Biofilms were washed with saline and stained with LIVE/DEAD®, visualized with CSLM and analyzed by COMSTAT to determine average thickness and biomass.\nTo determine whether polyamines (spermidine) are depleted by P11 phosphocellulose without direct contact in the transwell system, NTHi growth was initiated in the basolateral chamber containing 0, 100, 500, or 1000 μM Spermidine, while 0 (sBHI control) or 1.5% (w/v) P11 phosphocellulose was added to the apical chamber and maintained for 16 hrs. Biofilms were washed with saline and stained with LIVE/DEAD®, visualized with CSLM and analyzed by COMSTAT to determine average thickness and biomass. […]"}, "NTHI genomic DNA (gDNA)": {"tested_on": "NTHI genomic DNA (gDNA)", "experiment": "Protection of genomic DNA from DNase digestion (agarose gel)", "format": "biochemical, Non-typeable Haemophilus influenzae", "conditions": "DNase 0.5 units", "experimental": "(FIG. 7C) Increasing levels of spermidine (Spd) and HU, separately or together, were incubated with genomic DNA (2 μg/ml) for 1.5 h at 37° C., followed by treatment with Pulmozyme® for 20 min. DNA degradation was assayed using agarose gel electrophoresis. […] (FIG. 7D) Spd (300 μM) and HU (1 μM) were incubated with genomic DNA (2 μg/ml) for 40 h, followed by Pulmozyme® treatment for 20 min.\nTo test synergism in vitro, Applicants incubated NTHI genomic DNA (gDNA) with spermidine (10, 20, 50, or 100 μM) in the presence or absence of HU (50 or 100 nM) and DNase (0.5 units). Degradation was assessed by agarose gel electrophoresis and UV illumination."}, "[5]": {"tested_on": "NTHI biofilms in the middle ear", "experiment": "Chinchilla model of otitis media due to NTHI, middle ear biofilm scoring", "format": "in vivo", "conditions": "5 μg to middle ears at 4 and 5 days post infection, scored 24 h later", "protocol": "FIGS. 39A-39B: HMGB1 promotes biofilm resolution in an experimental model (chinchilla host) of OM. Diluent or 5 μg rHMGB1 or mHMGB1 were delivered directly to middle ears of chinchillas at 4 and 5 days post infection with NTHI. Animals were sacrificed 24 h later, and their middle ears were imaged (FIG. 39A) and blindly scored (FIG. 39B) based on the criteria described in the bottom of (FIG. 39A). Bars represent SEM. ***P<0.001."}, "genomic DNA": {"tested_on": "genomic DNA", "experiment": "Spermidine sensitivity of nucleases on genomic DNA", "format": "biochemical", "conditions": "Spermidine titrated from 10 μM-10 mM"}}, "note": "Entries after “also recorded” stand apart in the source; their conditions may differ.", "data": [{"molecule": "[Cl][Ce]([Cl])[Cl]", "note": "[CeCl3, cerium chloride]", "values": [{"measurement": "Z-DNA abundance in NTHI biofilm", "setting": "[1]", "value": "increased Z-DNA abundance"}, {"measurement": "induction of Z-DNA in genomic DNA", "setting": "genomic DNA / poly(dGdC); gDNA 2 μg/mL, spd 300 μM + HU 500 nM, 2 h at 37° C., or increased concentrations of CeCl3", "value": "synergized to induce Z-DNA"}, {"measurement": "NTHI biofilm formation / development", "setting": "preformed NTHI biofilms [2]", "value": "increased Z-DNA and biofilm formation"}]}, {"molecule": "CCN(CC)CCCC(C)Nc1ccnc2cc(Cl)ccc12", "note": "(centres unmarked) [chloroquine]", "values": [{"measurement": "Z-DNA abundance in NTHI biofilm", "setting": "[1]", "value": "decreased Z-DNA abundance; also recorded: reduced Z-DNA"}, {"measurement": "B-DNA to Z-DNA transition of poly(dGdC)", "setting": "genomic DNA / poly(dGdC); chloroquine 100 μM with NaCl 3.6 M", "value": "prevents the transition of B-DNA to Z-DNA"}, {"measurement": "NTHI biofilm formation / development", "setting": "preformed NTHI biofilms [2]", "value": "reduced Z-DNA and biofilm development"}]}, {"molecule": "NCCCCNCCCN", "note": "[spermidine]", "values": [{"measurement": "rescue of biofilm formation in dicyclohexylamine-treated NTHI biofilms", "setting": "[3]", "value": "defects in biofilm biogenesis could be compensated for; also recorded: restored normal biofilm thickness, biomass, and roughness; also recorded: able to rescue biofilm growth"}, {"measurement": "rescue of biofilm formation in dicyclohexylamine-treated NTHI biofilms", "setting": "[3]; listed as Spd", "value": "restored biofilm formation"}, {"measurement": "compensation of phosphocellulose effect on NTHI biofilm", "setting": "preformed NTHI biofilms [4]; spermidine 0-5 mM for 16 hrs", "value": "can partially compensate for the negative effect of phosphocellulose"}, {"measurement": "compensation of phosphocellulose effect on NTHI biofilm", "setting": "preformed NTHI biofilms [4]; spermidine 0-5 mM for 16 hrs, listed as Spermidine", "value": "rescues the negative effect of phosphocellulose on NTHI biofilm stability"}, {"measurement": "restoration of P11-depleted biofilm by HU or spermidine individually", "setting": "NTHI biofilms; 1% P11, 1 mM spermidine or 1 μM HU, data not shown", "value": "insufficient"}, {"measurement": "restoration of cation-depleted biofilms by spermidine alone", "setting": "NTHI biofilms; 1.5% P11, 100, 500 or 1000 μM spermidine, 16 hrs", "value": "alone can restore cation-depleted biofilms in a dose-dependent manner; also recorded: reduces the cation depletion effects of P11 phosphocellulose"}, {"measurement": "concentration protecting gDNA from DNase individually", "setting": "NTHI genomic DNA (gDNA)", "value": "> 100", "unit": "µM"}, {"measurement": "concentration inhibiting gDNA digestion synergistically when admixed", "setting": "NTHI genomic DNA (gDNA); admixed with HU", "value": "< 50", "unit": "µM"}]}, {"molecule": "[Cl-].[Cl-].[Mg+2]", "note": "[MgCl2]", "values": [{"measurement": "compensation of phosphocellulose effect on NTHI biofilm", "setting": "preformed NTHI biofilms [4]; MgCl2 0-10 mM for 16 hrs", "value": "can partially compensate for the disruptive effect of phosphocellulose; also recorded: rescues the negative effect of phosphocellulose on NTHI biofilm stability"}]}, {"molecule": "B1", "values": [{"measurement": "resolution of middle ear NTHI biofilms", "setting": "[5]", "value": "efficient resolution of adherent biofilms"}]}, {"molecule": "B2", "values": [{"measurement": "Spd inhibition: spermidine concentration where nuclease was reduced to <10% activity on genomic DNA", "setting": "genomic DNA", "value": ">10", "unit": "mM"}]}]}
